Tests used:
SaOS cells = experiment: Apoptosis of SaOS spheroids with Lipo-LPS-activated THP-1 macrophages and/or etoposide (IncuCyte Caspase-3/7); type: cell-based, rat; settings: 5 μM etoposide or macrophages stimulated 16 h with 100 ng/mL Lipo-LPS, fluorescence arbitrary units, FIG. 6
Source text: The SaOS cells are […] osteosarcoma cells. This is a malignant bone tumour. These cells can be cultured according to a 3D spheroid model adapted to tumour cells.
THP-1 are human monocytic cells derived from an acute monocytic leukemia.
To perform cellular death monitoring of these SaOS cells, the fluorescent product IncuCyte® Caspase-3/7 has been used to evaluate the number of apoptosis cells.
The results are shown in FIG. 6, in fluorescence arbitrary units.

[1] = test system: RL lymphoma cells (CD20+ human B lymphoma cells); experiment: Tumour growth monitoring in RL cells xenografted mice; type: in vivo, Scid CB17 mice; settings: 46 days after the tumour graft; 30 mg/kg, one injection per week; FIG. 1
Source text: During this experiment, six groups of Scid CB17 mice have been used. Each group is comprised at six mice.
Group 1=control (no treatment)

Row | Compound | Apoptosis rate of SaOS cells with respect to the control (SaOS cells) | Apoptosis rate of SaOS cells with respect to the control (SaOS cells; listed as epotoside) | Tumour volume relative to control mice [1]
1 | COc1cc([C@@H]2c3cc4c(cc3[C@@H](O[C@@H]3O[C@@H]5CO[C@@H](C)O[C@H]5[C@H](O)[C@H]3O)[C@H]3COC(=O)[C@H]23)OCO4)cc(OC)c1O [etoposide] | induces cancer cell apoptosis | significantly increased with respect to the control | 
2 | rituximab |  |  | twice lower

From patent US12433838B2, “Liposomal formulation of bacterial lipopolysaccharide combined with a cytotoxic agent, and use thereof in anti-tumour therapy” (priority 2017, dated 2025)
